Assay results: BindingDB's records for doi:10.1021/ml2001455 (2011)

What was measured:
[1] = target: T1, Mitogen-activated protein kinase 14 (Homo sapiens, UniProt Q16539); assay: Inhibition of p38alpha kinase using KRELVEPLTPSGEAPNQALLR as substrate for 20 mins by lactate dehydrogenase-coupled spectrophotometric assay
[2] = target: T1, Mitogen-activated protein kinase 14; assay: Inhibition of p38alpha in human PBMC assessed as inhibition of LPS-induced TNFalpha production after 16 to 18 hrs by ELISA
[3] = target: T1, Mitogen-activated protein kinase 14; assay: Inhibition of p38alpha in human PBMC assessed as inhibition of LPS-induced IL1beta production after 16 to 18 hrs by ELISA

T1 sequence (Q16539 whole entry): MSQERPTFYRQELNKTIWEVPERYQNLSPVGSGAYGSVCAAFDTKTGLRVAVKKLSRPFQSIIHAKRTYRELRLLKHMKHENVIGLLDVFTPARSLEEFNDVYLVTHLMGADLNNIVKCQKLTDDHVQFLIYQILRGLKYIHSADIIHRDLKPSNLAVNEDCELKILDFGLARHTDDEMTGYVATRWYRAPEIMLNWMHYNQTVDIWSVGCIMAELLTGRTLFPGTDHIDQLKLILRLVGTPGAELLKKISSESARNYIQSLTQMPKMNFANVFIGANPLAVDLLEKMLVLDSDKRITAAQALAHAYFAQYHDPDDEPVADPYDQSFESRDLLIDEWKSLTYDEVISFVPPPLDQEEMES

IC50 [1] [µM]	IC50 [2] [µM]	IC50 [3] [µM]	SMILES
> 20	> 20	–	COc1ccc(-c2c(=O)ncn3nc(Sc4ccccc4)ccc23)cc1
> 20	> 20	> 20	O=c1ncn2nc(Sc3ccccc3)ccc2c1-c1ccc(Cl)c(Cl)c1
–	> 20	–	COc1ccccc1-c1c(=O)ncn2nc(Sc3ccccc3)ccc12
